Test results reported in BindingDB's records for doi:10.1021/jm000497n (Welfide, 2001).

Target: Chymotrypsin A (Bos taurus)
Assay: In vitro inhibitory activity was determined against bovine pancreas chymotrypsin

Ki | Compound
1430 nM | Cc1cccc(-c2ncc(N)c(=O)n2CC(=O)NC(Cc2ccccc2)C(=O)C(F)(F)C(=O)NCCC(=O)O)c1 (centres undefined) [3-{4-[2-(5-Amino-6-oxo-2-m-tolyl-6H-pyrimidin-1-yl)-acetylamino]-2,2-difluoro-3-oxo-5-phenyl-pentanoylamino}-propionic acid]
1920 nM | Cc1cccc(-c2ncc(N)c(=O)n2CC(=O)NC(Cc2ccccc2)C(=O)C(F)(F)C(=O)NCc2ccccc2)c1 (centres undefined) [4-[2-(5-Amino-6-oxo-2-m-tolyl-6H-pyrimidin-1-yl)-acetylamino]-2,2-difluoro-3-oxo-5-phenyl-pentanoic acid benzylamide]
1440 nM | Cc1cccc(-c2ncc(N)c(=O)n2CC(=O)NC(Cc2ccccc2)C(=O)C(F)(F)C(=O)NCC(N)=O)c1 (centres undefined) [4-[2-(5-Amino-6-oxo-2-m-tolyl-6H-pyrimidin-1-yl)-acetylamino]-2,2-difluoro-3-oxo-5-phenyl-pentanoic acid carbamoylmethyl-amide]
3280 nM | Nc1cnc(-c2ccc(F)cc2)n(CC(=O)NC(Cc2ccccc2)C(=O)C(F)(F)C(=O)NCc2ccccc2)c1=O (centres undefined) [4-{2-[5-Amino-2-(4-fluoro-phenyl)-6-oxo-6H-pyrimidin-1-yl]-acetylamino}-2,2-difluoro-3-oxo-5-phenyl-pentanoic acid benzylamide]
